{
  "source": "paper PMC5794198",
  "about": "“Inhibitors of Trypanosoma cruzi Sir2 related protein 1 as potential drugs against Chagas disease” (PLoS Neglected Tropical Diseases, 2018)",
  "key": {"TcSir2rp1": {"target": "TcSir2rp1 (Trypanosoma cruzi, UniProt Q4DVL9)", "sequence (Q4DVL9 entry or part of it)": "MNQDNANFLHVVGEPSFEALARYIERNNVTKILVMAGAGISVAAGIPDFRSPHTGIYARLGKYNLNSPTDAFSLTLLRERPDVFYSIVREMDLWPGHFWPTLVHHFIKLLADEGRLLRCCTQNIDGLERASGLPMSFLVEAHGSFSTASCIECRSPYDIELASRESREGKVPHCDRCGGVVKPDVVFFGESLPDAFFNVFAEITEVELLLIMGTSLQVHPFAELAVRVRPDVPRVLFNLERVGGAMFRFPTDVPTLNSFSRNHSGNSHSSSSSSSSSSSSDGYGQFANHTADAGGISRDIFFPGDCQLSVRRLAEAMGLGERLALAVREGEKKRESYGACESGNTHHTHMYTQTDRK", "test": "TcSir2rp1 NAD+-dependent deacetylase fluorimetric assay (CycLex kit)", "format": "biochemical"}, "Hepatocytes": {"tested_on": "Hepatocytes", "test": "HCS injury score panel in primary hepatocytes", "format": "cell-based", "description": "In vitro assays were also performed in primary cells (hepatocytes and neurons) to evaluate BNIPSpd (9) potential toxicity: (a) host cell nuclei counting after HOECHST staining, (b) viability by measuring the metabolism of WST-8 probe, (c) apoptosis induction through caspase 3/7 activation, (d) evaluation of mitochondrial dysfunction by measuring the membrane potential using TMRM probe, (e) membrane integrity by measuring the extracellular LDH, (f) DNA damage by histone H2AX phosphorylation (exclusively in hepatocytes) and (g) imaging of neurite outgrowth (exclusively in neurons).\nThe assays were performed 24 hrs after cell collection and isolation. […] Then, absorbance at 450 nm was measured in order to analyse cell viability (WST-8). Cells were washed three times and analysed using the automatic fluorescence microscope BD Pathway 855. […] Data were analysed with AttoVision (Becton Dickinson). […] LDH release was measured in mU/L in culture media obtained from cells subjected to treatments for 24 hrs, by measuring the released LDH rate of oxidation of NADH to NAD^+ at 340 nm using Synergy 2 from BioTech.\nDNA damage was evaluated by washing cells with PBS and fixation using paraformaldehyde 3% in PBS for 15 mins. […] To determine the DNA damage, intensity in the nuclei was analyzed using AttoVision software (Becton Dickinson). […]"}, "Neurons": {"tested_on": "Neurons", "test": "MTT cytotoxicity on neurons", "format": "cell-based", "description": "To evaluate toxicity towards mammalian cell lines (hepatocytes (Seralab), neurons and MDCK cells (ATCC); a renal cell line from dogs), all the compounds were assayed with MTT [66]. Additionally, for cardiotoxicity evaluation, where toxic effects in cardiomyocytes could be affecting their function before being lethal, a hERG assay was performed according to the manufacturer’s protocol Predictor hERG Fluorescence Polarization Assay (Invitrogen). Briefly, inhibition of hERG channel was analysed by competition of BNIPSpd and a high-affinity red fluorescent hERG channel ligand. BNIPSpd (9) was mixed with the ligand and membranes containing hERG channel, incubated for 2 hrs at RT and the fluorescence polarization was measured using 530 / 590 nm ex/em filters using the Synergy 2 plate reader (Biotek)."}, "[1]": {"conditions": "single dose 10 μM, 200 μM NAD+, 10 μM peptide"}},
  "data": [
    {"smiles": "O=C1c2cccc3cccc(c23)C(=O)N1CCCNCCCCNCCCNCCCN1C(=O)c2cccc3cccc(c23)C1=O", "note": "[Compound 9, BNIP Spermidine]", "values": [
      {"measurement": "inhibition at 50 µM", "setting": "TcSir2rp1; 50 μM", "result": "72 ± 6", "unit": "%"},
      {"measurement": "Inhibition of NAD+-dependent deacetylase activity of TcSir2rp1", "setting": "TcSir2rp1; [1]", "result": "statistically significant inhibition"},
      {"measurement": "inhibition at 10 µM", "setting": "TcSir2rp1; [1]", "result": "~50", "unit": "%"},
      {"measurement": "Injury score for hepatocytes", "setting": "Hepatocytes; at 50 μM", "result": "low injury (low injury (1 to <5))"},
      {"measurement": "Injury score for hepatocytes", "setting": "Hepatocytes; combined score of cytotoxicity panel, 24 hrs", "result": "low injury (low injury (1 to <5))"},
      {"measurement": "Neurotoxicity (Neurons) cytotoxicity", "setting": "Neurons", "result": "≥ 3.9", "unit": "µM"}
    ]}
  ]
}
